Usually DC50 stands for the concentration at which degradation of the target reaches its halfway point. In general, Dmax refers to the largest share of the target that was removed.

Among the data in patent US11427548B2 (Arvinas Operations, Inc., priority 2015, dated 2022) are DC50 and Dmax values, retold here.

The target of the assay is T1, Androgen Receptor (Homo sapiens, UniProt P10275).
T1 construct: endogenous in cells; host or cells: VCaP cells
T1 sequence (P10275 1-920): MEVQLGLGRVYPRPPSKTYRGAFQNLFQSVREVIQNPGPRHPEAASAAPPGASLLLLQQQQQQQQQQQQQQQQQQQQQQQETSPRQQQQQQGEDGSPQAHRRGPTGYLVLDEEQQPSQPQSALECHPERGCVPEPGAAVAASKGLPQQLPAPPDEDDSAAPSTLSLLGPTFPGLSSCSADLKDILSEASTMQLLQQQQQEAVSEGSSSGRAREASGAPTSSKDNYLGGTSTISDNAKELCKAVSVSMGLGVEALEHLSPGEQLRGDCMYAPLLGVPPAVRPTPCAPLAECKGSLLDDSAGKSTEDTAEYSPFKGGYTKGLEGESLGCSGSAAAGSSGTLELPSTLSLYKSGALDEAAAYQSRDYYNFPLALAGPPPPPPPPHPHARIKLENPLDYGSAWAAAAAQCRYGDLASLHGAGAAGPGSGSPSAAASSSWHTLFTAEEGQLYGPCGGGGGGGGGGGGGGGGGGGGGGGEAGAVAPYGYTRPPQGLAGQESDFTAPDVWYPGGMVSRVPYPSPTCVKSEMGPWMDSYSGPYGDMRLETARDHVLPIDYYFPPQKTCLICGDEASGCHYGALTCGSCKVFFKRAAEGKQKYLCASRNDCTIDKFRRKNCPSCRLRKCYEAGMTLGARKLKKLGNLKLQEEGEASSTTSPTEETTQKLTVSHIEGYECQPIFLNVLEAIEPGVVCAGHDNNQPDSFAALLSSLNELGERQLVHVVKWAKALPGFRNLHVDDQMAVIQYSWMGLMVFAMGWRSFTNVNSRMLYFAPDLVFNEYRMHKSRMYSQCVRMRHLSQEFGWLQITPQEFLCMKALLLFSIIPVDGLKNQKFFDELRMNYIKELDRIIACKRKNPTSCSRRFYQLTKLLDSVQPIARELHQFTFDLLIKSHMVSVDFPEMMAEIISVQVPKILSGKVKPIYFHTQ
The assay is described as follows: Androgen Receptor ELISA assay (PathScan AR ELISA) in VCaP cells: AR degradation, Dmax and DC50. The class given is cell-based. Put shortly: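 VCaP cells, 30,000/well, grown ≥3 days in phenol red-free RPMI with 5% charcoal-stripped FBS; compound added in 0.1% DMSO with 0.1 nM R1881, 7 half-log doses, 24 h. Lysate AR quantified by PathScan sandwich ELISA, HRP/TMB read at 450 nm, giving DC50 and Dmax.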

[1] abbreviates: VCaP cells; Table 35; read-out: VCaP DC50.
Where [2] appears, read: VCaP, VCaP cells; Table 35; read-out: VCaP Dmax (%).
The mark [3] stands for this setting: read-out: VCaP DC50; VCaP cells; Table 35.

Molecules are shown by their SMILES. Where two headings read alike, the source gives them in different places.

As for `Cc1nccn1-c1ccc([C@H](C)NC(=O)[C@@H]2C[C@@H](O)CN2C(=O)[C@@H](NC(=O)CNC(=O)c2ccc(Oc3ccc(C(=O)N[C@H]4C(C)(C)[C@H](Oc5ccc(C#N)c(Cl)c5)C4(C)C)cc3)cc2)C(C)(C)C)cc1` [Example 444], the 50% degradation concentration (DC50) under setting [1] is less than 50 nM. Besides, the Dmax under setting [2] was greater than 71%.
`Cc1ncsc1-c1ccc([C@H](C)NC(=O)[C@@H]2C[C@@H](O)CN2C(=O)[C@@H](NC(=O)COCCNc2ccc(-c3ccc(C(=O)N[C@H]4C(C)(C)[C@H](Oc5ccc(C#N)c(Cl)c5)C4(C)C)cc3)cn2)C(C)(C)C)cc1` [Example 445]: the DC50 under setting [1] is less than 50 nM. The Dmax under setting [2] was greater than 71%.
`Cc1ncsc1-c1ccc(CNC(=O)[C@@H]2C[C@@H](O)CN2C(=O)[C@@H](NC(=O)COCCNc2ccc(-c3ccc(C(=O)N[C@H]4C(C)(C)[C@H](Oc5ccc(C#N)c(Cl)c5)C4(C)C)cc3)cn2)C(C)(C)C)nc1` [Example 446]: the DC50 under setting [1] was greater than 501 nM. Further, the Dmax under setting [2] fell in the range of 26 to 50%.
Consider `Cc1ncsc1-c1ccc([C@H](C)NC(=O)[C@@H]2C[C@@H](O)CN2C(=O)[C@@H](NC(=O)COCC2CCN(c3ccc(C(=O)N[C@H]4C(C)(C)[C@H](Oc5ccc(C#N)c(Cl)c5)C4(C)C)cc3)CC2)C(C)(C)C)cc1` [Example 447], for which the 50% degradation concentration (DC50) under setting [1] is less than 50 nM. Moreover, under setting [2], the greatest degradation seen (Dmax) was greater than 71%.
Consider `Cc1ncsc1-c1ccc([C@H](C)NC(=O)[C@@H]2C[C@@H](O)CN2C(=O)[C@@H](NC(=O)CNC(=O)c2ccc(Oc3ccc(C(=O)N[C@H]4C(C)(C)[C@H](Oc5ccc(C#N)c(Cl)c5)C4(C)C)cn3)cc2)C(C)(C)C)cc1` [Example 448], for which the DC50 under setting [1] was less than 50 nM. Moreover, the greatest degradation seen (Dmax) under setting [2] was greater than 71%.
As to `Cc1nccn1-c1ccc([C@H](C)NC(=O)[C@@H]2C[C@@H](O)CN2C(=O)[C@@H](NC(=O)COCCOc2ccc(-c3ccc(C(=O)N[C@H]4C(C)(C)[C@H](Oc5ccc(C#N)c(Cl)c5)C4(C)C)cc3)cc2)C(C)(C)C)cc1` [Example 449], the DC50 under setting [1] is less than 50 nM. Besides, the Dmax under setting [2] was greater than 71%.
Turning to `Cc1ncsc1-c1ccc([C@H](C)NC(=O)[C@@H]2C[C@@H](O)CN2C(=O)[C@@H](NC(=O)COCCOc2ccc(-c3ccc(C(=O)N[C@H]4C(C)(C)[C@H](Oc5ccc(C#N)c(Cl)c5)C4(C)C)cc3)cc2)C(C)(C)C)cc1` [Example 450], under setting [1], the DC50 was less than 50 nM. Besides, under setting [2], the Dmax was greater than 71%.
Consider `CN(C)c1ccc(CNC(=O)[C@@H]2C[C@@H](O)CN2C(=O)[C@@H](NC(=O)COCCCOCCCCCOc2ccc(N3C(=S)N(c4ccc(C#N)c(C(F)(F)F)c4)C(=O)C3(C)C)cc2)C(C)(C)C)cn1` [Example 451], for which the maximal degradation (Dmax) (VCaP, read-out: VCaP Dmax (%)) was less than 25%. Moreover, the DC50 under setting [3] is greater than 501 nM.
On the same counts, the results for `C[C@H](NC(=O)[C@@H]1C[C@@H](O)CN1C(=O)[C@@H](NC(=O)COCCCOCCCCCOc1ccc(N2C(=S)N(c3ccc(C#N)c(C(F)(F)F)c3)C(=O)C2(C)C)cc1)C(C)(C)C)c1ccc(-c2nccn2C)cc1` [Example 452] are less than 25% and greater than 501 nM.
In the case of `Cc1ncsc1-c1ccc(CNC(=O)[C@@H]2C[C@@H](O)CN2C(=O)[C@@H](NC(=O)COCCCOCCCCCOc2ccc(N3C(=S)N(c4ccc(C#N)c(C(F)(F)F)c4)C(=O)C3(C)C)cc2)C(C)(C)C)nc1` [Example 453], the Dmax (VCaP, read-out: VCaP Dmax (%)) was less than 25%. Moreover, the DC50 under setting [3] was greater than 501 nM.
Regarding `Cc1ncsc1-c1ccc([C@@H](C)NC(=O)[C@H]2C[C@H](O)CN2C(=O)[C@H](NC(=O)COCCCCCNc2ccc(C(=O)N[C@H]3C(C)(C)[C@H](Oc4ccc(C#N)c(Cl)c4)C3(C)C)cc2)C(C)(C)C)cc1` [Example 454], the 50% degradation concentration (DC50) under setting [1] was greater than 501 nM. The Dmax under setting [2] was in the range of 26 to 50%.
With `Cc1ncsc1-c1ccc([C@H](C)NC(=O)[C@@H]2C[C@@H](O)CN2C(=O)C(NC(=O)COCCCCCNc2ccc(C(=O)N[C@H]3C(C)(C)[C@@H](Oc4ccc(C#N)c(Cl)c4)C3(C)C)cc2)C(C)(C)C)cc1` (stereo partly shown) [Example 455], under setting [1], the DC50 was greater than 501 nM. The greatest degradation seen (Dmax) under setting [2] lay within 51 to 70%.
Regarding `Cc1ncsc1-c1ccc([C@H](C)NC(=O)[C@@H]2C[C@@H](O)CN2C(=O)[C@@H](NC(=O)COCCC2CCN(c3ccc(C(=O)N[C@H]4C(C)(C)[C@H](Oc5ccc(C#N)c(Cl)c5)C4(C)C)cc3)CC2)C(C)(C)C)cc1` [Example 456], the DC50 under setting [1] is less than 50 nM. Further, the greatest degradation seen (Dmax) under setting [2] was greater than 71%.
In the case of `Cc1ncsc1-c1ccc([C@H](C)NC(=O)[C@@H]2C[C@@H](O)CN2C(=O)[C@H](NC(=O)COCCCCCNc2ccc(C(=O)N[C@H]3C(C)(C)[C@H](Oc4ccc(C#N)c(Cl)c4)C3(C)C)cc2)C(C)(C)C)cc1` [Example 457], under setting [1], the 50% degradation concentration (DC50) is greater than 501 nM. Also, the Dmax under setting [2] is less than 25%.
On the same counts, the results for `Cc1ncsc1-c1ccc([C@H](C)NC(=O)[C@H]2C[C@@H](O)CN2C(=O)[C@@H](NC(=O)COCCCCCNc2ccc(C(=O)N[C@H]3C(C)(C)[C@H](Oc4ccc(C#N)c(Cl)c4)C3(C)C)cc2)C(C)(C)C)cc1` [Example 458] are greater than 501 nM and less than 25%.
As to `Cc1ncsc1-c1ccc([C@@H](C)NC(=O)[C@@H]2C[C@@H](O)CN2C(=O)[C@@H](NC(=O)COCCCCCNc2ccc(C(=O)N[C@H]3C(C)(C)[C@H](Oc4ccc(C#N)c(Cl)c4)C3(C)C)cc2)C(C)(C)C)cc1` [Example 459], the DC50 under setting [1] was greater than 501 nM. Besides, the Dmax under setting [2] is 26 to 50%.
Regarding `Cc1ncsc1-c1ccc([C@H](C)NC(=O)[C@@H]2CC(OC(=O)[C@@H]3CCCN3)CN2C(=O)[C@@H](NC(=O)COCCCCCNc2ccc(C(=O)N[C@H]3C(C)(C)[C@H](Oc4ccc(C#N)c(Cl)c4)C3(C)C)cc2)C(C)(C)C)cc1` (stereo partly shown) [Example 461], the DC50 under setting [1] was less than 50 nM. The Dmax under setting [2] is greater than 71%.
As for `Cc1ncsc1-c1ccc([C@H](CN2CCCC2)NC(=O)[C@@H]2C[C@@H](O)CN2C(=O)[C@@H](NC(=O)COCCCCCOc2ccc(C(=O)N[C@H]3C(C)(C)[C@H](Oc4ccc(C#N)c(Cl)c4)C3(C)C)cc2)C(C)(C)C)cc1` [Example 465], the DC50 under setting [1] was less than 50 nM. In addition, the Dmax under setting [2] is greater than 71%.
Take `Cc1ncsc1-c1ccc([C@@H](CN2CCCC2)NC(=O)[C@@H]2C[C@@H](O)CN2C(=O)[C@@H](NC(=O)COCCCCCOc2ccc(C(=O)N[C@H]3C(C)(C)[C@H](Oc4ccc(C#N)c(Cl)c4)C3(C)C)cc2)C(C)(C)C)cc1` [Example 466]: the DC50 under setting [1] lay within 51 to 500 nM. In addition, the maximal degradation (Dmax) under setting [2] was greater than 71%.
As to `Cc1ncsc1-c1ccc([C@H](C)NC(=O)[C@@H]2C[C@@H](OC(=O)C(C)C)CN2C(=O)[C@@H](NC(=O)COCCCCCNc2ccc(C(=O)N[C@H]3C(C)(C)[C@H](Oc4ccc(C#N)c(Cl)c4)C3(C)C)cc2)C(C)(C)C)cc1` [Example 468], under setting [1], the DC50 is less than 50 nM. In addition, under setting [2], the Dmax was greater than 71%.
`Cc1ncsc1-c1ccc([C@@H](CN(C)C)NC(=O)[C@@H]2C[C@@H](O)CN2C(=O)[C@@H](NC(=O)COCCCCCOc2ccc(C(=O)N[C@H]3C(C)(C)[C@H](Oc4ccc(C#N)c(Cl)c4)C3(C)C)cc2)C(C)(C)C)cc1` [Example 471]: the DC50 under setting [1] was greater than 501 nM. Besides, the maximal degradation (Dmax) under setting [2] lay within 26 to 50%.
Turning to `Cc1ncsc1-c1ccc(CNC(=O)[C@@H]2C[C@@H](O)CN2C(=O)[C@@H](NC(=O)CS(=O)(=O)CCOc2ccc(-c3ccc(C(=O)N[C@H]4C(C)(C)[C@H](Oc5ccc(C#N)c(Cl)c5)C4(C)C)cc3)cc2)C(C)(C)C)cc1` [Example 472], the DC50 under setting [1] was less than 50 nM. The Dmax under setting [2] was greater than 71%.
With `Cc1ncsc1-c1ccc([C@H](C)NC(=O)[C@@H]2C[C@@H](O)CN2C(=O)[C@@H](NC(=O)COCCCCCNc2ccc(C(=O)N(C)[C@H]3C(C)(C)[C@H](Oc4ccc(C#N)c(Cl)c4)C3(C)C)cc2)C(C)(C)C)cc1` [Example 473], the half-maximal degradation concentration (DC50) under setting [1] is less than 50 nM. Further, the Dmax under setting [2] was 26 to 50%.
With `Cc1ncsc1-c1ccc([C@@H](CN)NC(=O)[C@@H]2C[C@@H](O)CN2C(=O)[C@@H](NC(=O)COCCCCCOc2ccc(C(=O)N[C@H]3C(C)(C)[C@H](Oc4ccc(C#N)c(Cl)c4)C3(C)C)cc2)C(C)(C)C)cc1` [Example 474], the DC50 under setting [1] was less than 50 nM. Besides, the Dmax under setting [2] fell in the range of 26 to 50%.
For the molecule `Cc1ncsc1-c1ccc([C@H](CN)NC(=O)[C@@H]2C[C@@H](O)CN2C(=O)[C@@H](NC(=O)COCCCCCOc2ccc(C(=O)N[C@H]3C(C)(C)[C@H](Oc4ccc(C#N)c(Cl)c4)C3(C)C)cc2)C(C)(C)C)cc1` [Example 475], under setting [1], the DC50 was less than 50 nM. Under setting [2], the Dmax was greater than 71%.
With `Cc1ncsc1-c1ccc(CNC(=O)[C@@H]2C[C@@H](O)CN2C(=O)[C@@H](NC(=O)COCCCCCS(=O)(=O)c2ccc(C(=O)N[C@H]3C(C)(C)[C@H](Oc4ccc(C#N)c(Cl)c4)C3(C)C)cc2)C(C)(C)C)cc1` [Example 476], the half-maximal degradation concentration (DC50) under setting [1] is less than 50 nM. Besides, under setting [2], the Dmax was greater than 71%.
